We go through 24 molecules from ChEMBL document CHEMBL3301361, “Experimental in vitro DMPK and physicochemical data on a set of publicly disclosed compounds”.

Series [1] in a line: in vitro. The note with it: human, plasma.
Series [2] can be described thus: in vitro. The note with it: SD, HW or BN, rat, plasma.

The term fraction unbound denotes the share of the substance not bound to proteins or other matrix. Take `Cc1ccc(S(=O)(=O)Nc2ccc3nc(C)oc3c2)cc1`: the fraction unbound at 5 h in the series “in vitro [1]” (PPB) was 0.0209; in “in vitro [2]”, 0.051.
Regarding `CN(Cc1cccc2ccccc12)c1cc(N2CCOCC2)nc(=O)[nH]1`, the fraction unbound at 5 h in the series “in vitro [1]” (PPB) is 0.0568; in “in vitro [2]”, 0.0064.
The like results for `O=c1cc(Cn2c(C3CCC3)nc3nccnc32)c2ccc(F)c(F)c2[nH]1` were, in that order, 0.201 and 0.16.
Take `O=C(N[C@@H]1COc2cccc(-c3ccc(CO)nc3)c2C1)c1ccc(OCCOCC(F)(F)F)nc1`: the fraction unbound at 5 h was 0.0409 in the series “in vitro [1]” (PPB) and 0.089 in the series “in vitro [2]”.
In the case of `CCN1CCC[C@H]1CNC(=O)c1c(O)c(Cl)cc(Cl)c1OC` [RACLOPRIDE], the results for the fraction unbound at 5 h in “in vitro [1]” (PPB) and in the series “in vitro [2]” were 0.11 and 0.557, respectively.
The corresponding values for `CC(C)C(NC(=O)c1ccccc1)C(=O)c1ccc([N+](=O)[O-])cc1` (stereo not drawn) are 0.0418 and 0.069.
The like results for `O=C(NCc1ccc(F)c(OC(F)(F)F)c1)C1c2ccccc2C(=O)N1CCc1ncc(F)cn1` (stereo not drawn) were, in that order, 0.0321 and 0.0988.
Consider `C[S+]([O-])Cc1ccc(C(=O)Nc2cccnc2C(=O)NCC2CCC2)c2ccccc12` (stereo not drawn), for which the fraction unbound at 5 h in the series “in vitro [1]” was 0.013; in “in vitro [2]”, 0.0119.
`CC(C)C(NC(=O)c1cc(Cl)ccc1C(F)(F)F)C(=O)c1ccc(C#N)cc1` (stereo not drawn): the values for the fraction unbound at 5 h in the series “in vitro [1]” (PPB) and in the series “in vitro [2]” were 0.0262 and 0.0428, respectively.
The corresponding values for `O=S(=O)(N[C@H](CO)C(C(F)(F)F)C(F)(F)F)c1ccc(Cl)s1` [BEGACESTAT] are 0.0909 and 0.11.
In the case of `CNC1(c2ccccc2Cl)CCCCC1=O` (stereo not drawn) [KETAMINE], the figures for the fraction unbound at 5 h in the series “in vitro [1]” and in the series “in vitro [2]” were 0.58 and 0.552, respectively.
As for `COc1ccc(CCC[N+](C)(CCCc2ccc(OC)cc2)CCNC(=O)c2nc(Cl)c(N)nc2N)cc1`, the unbound share (fraction unbound) at 5 h in “in vitro [1]” (PPB) is 0.163; in “in vitro [2]”, 0.157.
The like results for `CC(C)C(NC(=O)c1ccccc1)C(=O)c1ccc(F)cc1` (stereo not drawn) were, in that order, 0.0499 and 0.0836.
The like results for `O=C(NCc1ccccn1)c1cc(-c2ccccc2)nc2ccccc12` were, in that order, 0.013 and 0.02.
For the molecule `Cc1cc(I)cc2c1NC(C(=O)O)C1CC=CC21` (stereo not drawn), the unbound share (fraction unbound) at 5 h is 0.002 in the series “in vitro [1]” (PPB) and 0.007 in the series “in vitro [2]”.
For the molecule `COc1ccc(NC(=O)c2ccc(C[S+](C)[O-])c3ccccc23)c(C(=O)NCC2CCOCC2)n1` (stereo not drawn), the fraction unbound at 5 h was 0.0544 in the series “in vitro [1]” and 0.0437 in the series “in vitro [2]”.
For `O=C1Cc2cc(CCN3CCN(c4nsc5ccccc45)CC3)c(Cl)cc2N1` [ZIPRASIDONE], the fraction unbound at 5 h in the series “in vitro [1]” (PPB) was 0.001; in the series “in vitro [2]”, 0.003.
Take `CC(Cc1ccccn1)N1C(=O)c2ccccc2C1C(=O)NCc1ccc(OC(F)(F)F)cc1` (stereo not drawn): the figures for the fraction unbound at 5 h in “in vitro [1]” (PPB) and in the series “in vitro [2]” were 0.0111 and 0.0366, respectively.
In the case of `Cc1cc(C)c(C)c(Cn2ccc3c(/C=N/NC(=O)c4ccc(O)c(C#N)c4)cccc32)c1C`, the fraction unbound at 5 h in “in vitro [1]” (PPB) is 0.04; in “in vitro [2]” it was 0.0032.
The corresponding values for `O=C(NCc1ccc(OC(F)(F)F)cc1)C1c2cccc(O)c2C(=O)N1CCc1ncc(F)cn1` (stereo not drawn) are 0.0179 and 0.0418.
With `Nc1nc(-c2nn(Cc3ccccc3F)c3ncccc23)nc(N)c1N1CCOCC1`, the fraction unbound at 5 h in the series “in vitro [1]” is 0.0768; in “in vitro [2]”, 0.117.
With `Cc1nc(C(C)C)c(C(N)=O)nc1-c1ccc([C@H]2CC[C@H](CC(=O)O)CC2)cc1`, the unbound share (fraction unbound) at 5 h was 0.0262 in “in vitro [1]” (PPB) and 0.0119 in the series “in vitro [2]”.
`O=c1cc(N2CCOCC2)nc(NCc2cccc(Cl)c2)[nH]1`: the fraction unbound at 5 h is 0.0705 in “in vitro [1]” (PPB) and 0.0477 in “in vitro [2]”.
The corresponding values for `CCC[C@H](c1ccc(C(=O)O)c(Oc2cccc(Cl)c2)c1)N1CCC[C@H](n2cc(C)c(=O)[nH]c2=O)C1` are 0.0119 and 0.016.
